In ChEMBL document CHEMBL1201862, “PubChem BioAssay data set” (2004):
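Protocol summary: plate cells (96-well), add compound at 5 concentrations, incubate 48 h, interpolate endpoints linearly. GI50 marks 50% less growth.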 Calls of active or inactive are those of the source. No stated cut-off is given here; in the data, active = GI50 up to about 1.1 µM and inactive = higher.

How the values were obtained:
Test in all cases: growth of human tumour cells (NCI), 48 h
ACHN = system: ACHN
M14 = system: M14
LOX IMVI = system: LOX IMVI
SF-295 = system: SF-295
U-251 = system: U-251
NCI-H460 = system: NCI-H460
786-0 = system: 786-0
SK-MEL-5 = system: SK-MEL-5
EKVX = system: EKVX
UO-31 = system: UO-31
A549 = system: A549
NCI-H522 = system: NCI-H522
HT-29 = system: HT-29
NCI-H23 = system: NCI-H23
SK-MEL-28 = system: SK-MEL-28
RXF 393 = system: RXF 393

Structure (SMILES)	GI50 (ACHN)	GI50 (M14)	GI50 (LOX IMVI)	GI50 (SF-295)	GI50 (U-251)	GI50 (NCI-H460)	GI50 (786-0)	GI50 (SK-MEL-5)	GI50 (EKVX)	GI50 (UO-31)	GI50 (A549)	GI50 (NCI-H522)	GI50 (HT-29)	GI50 (NCI-H23)	GI50 (SK-MEL-28)	GI50 (RXF 393)
c1ccc(SC2CCSc3ccccc3C2Sc2ccccc2)cc1 (stereo not given)	> 100 µM (inactive)	> 100 µM (inactive)	> 100 µM (inactive)	35.2 µM (inactive)	> 100 µM (inactive)	> 100 µM (inactive)	> 100 µM (inactive)	20.9 µM (inactive)	> 100 µM (inactive)	6.9 µM (inactive)	> 100 µM (inactive)	> 100 µM (inactive)	69.2 µM (inactive)	–	–	–
NS(=O)(=O)c1ccc(NC(=O)CC(=O)Nc2ccc(S(N)(=O)=O)cc2)cc1	> 100 µM (inactive)	> 100 µM (inactive)	> 100 µM (inactive)	> 100 µM (inactive)	> 100 µM (inactive)	–	> 100 µM (inactive)	> 100 µM (inactive)	> 100 µM (inactive)	> 100 µM (inactive)	> 100 µM (inactive)	> 100 µM (inactive)	> 100 µM (inactive)	> 100 µM (inactive)	> 100 µM (inactive)	–
CCN(CC)CC(=O)Nc1ccc2c(c1)C(=O)c1ccc(NC(=O)CN(CC)CC)cc1C2=O	25.5 µM (inactive)	19.7 µM (inactive)	14.7 µM (inactive)	39 µM (inactive)	21.6 µM (inactive)	14.1 µM (inactive)	18.9 µM (inactive)	21.2 µM (inactive)	89.3 µM (inactive)	> 100 µM (inactive)	27.9 µM (inactive)	21.1 µM (inactive)	30.5 µM (inactive)	77.6 µM (inactive)	53.2 µM (inactive)	3.22 µM (inactive)
O=C1C2c3[nH]c4ccccc4c3C3CCC(c4ccccc4)CC3C2C(=O)N1c1ccccc1 (stereo not given)	> 100 µM (inactive)	> 100 µM (inactive)	> 100 µM (inactive)	> 100 µM (inactive)	> 100 µM (inactive)	> 100 µM (inactive)	> 100 µM (inactive)	> 100 µM (inactive)	> 100 µM (inactive)	> 100 µM (inactive)	> 100 µM (inactive)	–	> 100 µM (inactive)	> 100 µM (inactive)	> 100 µM (inactive)	> 100 µM (inactive)
COc1cc(CNc2nc3c(N)cc(C(F)(F)F)cc3nc2-c2ccccc2)cc(OC)c1OC	23.7 µM (inactive)	47.1 µM (inactive)	18.5 µM (inactive)	37.7 µM (inactive)	63.8 µM (inactive)	25.9 µM (inactive)	88.3 µM (inactive)	21.3 µM (inactive)	3.41 µM (inactive)	16.8 µM (inactive)	19 µM (inactive)	11.6 µM (inactive)	13.4 µM (inactive)	19 µM (inactive)	53.5 µM (inactive)	8.47 µM (inactive)
O=C(CCc1nnc(S)[nH]1)Nc1ccc(Cl)c(Cl)c1	12.6 µM (inactive)	27.4 µM (inactive)	–	50.6 µM (inactive)	99.5 µM (inactive)	90.8 µM (inactive)	> 100 µM (inactive)	14.1 µM (inactive)	> 100 µM (inactive)	45.6 µM (inactive)	40.9 µM (inactive)	23.4 µM (inactive)	> 100 µM (inactive)	53.3 µM (inactive)	71.6 µM (inactive)	–
O=C1NC(=O)C(C(=O)C(=O)Nc2ccc(Br)cc2)C(=O)N1	> 100 µM (inactive)	> 100 µM (inactive)	> 100 µM (inactive)	> 100 µM (inactive)	> 100 µM (inactive)	–	> 100 µM (inactive)	> 100 µM (inactive)	> 100 µM (inactive)	> 100 µM (inactive)	> 100 µM (inactive)	> 100 µM (inactive)	> 100 µM (inactive)	> 100 µM (inactive)	> 100 µM (inactive)	5.04 µM (inactive)
CC[n+]1c(/C=C/c2ccc(N(CCCl)CCCl)cc2)ccc2cc(Br)ccc21	3.17 µM (inactive)	1.87 µM (inactive)	1.47 µM (inactive)	2.65 µM (inactive)	1.31 µM (inactive)	2.65 µM (inactive)	1.84 µM (inactive)	1.1 µM (active)	3.52 µM (inactive)	15.1 µM (inactive)	3.52 µM (inactive)	0.471 µM (active)	2.86 µM (inactive)	2.79 µM (inactive)	1.21 µM (inactive)	1.31 µM (inactive)
C=CC[P@]1(=O)O[C@H](c2ccccc2)C(C)N1C(C)C (stereo not given in full)	> 100 µM (inactive)	> 100 µM (inactive)	> 100 µM (inactive)	> 100 µM (inactive)	> 100 µM (inactive)	> 100 µM (inactive)	> 100 µM (inactive)	> 100 µM (inactive)	> 100 µM (inactive)	> 100 µM (inactive)	> 100 µM (inactive)	> 100 µM (inactive)	> 100 µM (inactive)	> 100 µM (inactive)	> 100 µM (inactive)	> 100 µM (inactive)
